Test results taken from ChEMBL document CHEMBL5380844, “Discovery of a Novel, Potent, Orally Active, and Safe Inhibitor Targeting Human Mitochondrial RNA Polymerase” (J Med Chem, 2023).
Active and inactive are the calls of the source. No cut-off for these calls is given here.

Experiments:
[1] = system: A2780; assay: Induction of apoptosis in human A2780 cells assessed as necrotic cells at 50 nM incubated for 96 hrs by Annexin-V/FITC and PI staining based flow cytometry analysis (reference value: 2.07%); format: functional
[2] = system: NCI-H3122; assay: Antiproliferative activity against human NCI-H3122 cells incubated for 168 hrs by SRB method; format: functional, cell-based; conditions: NCI-H3122, 168 h
[3] = system: A2780; assay: Downregulation of UQCR level in human A2780 cells by Western blot analysis; format: functional, cell-based; conditions: dose <= 500.0 nM
[4] = system: A2780; assay: Induction of apoptosis in human A2780 cells assessed as late apoptotic cells at 50 nM incubated for 96 hrs by Annexin-V/FITC and PI staining based flow cytometry analysis (reference value: 3.79%); format: functional
[5] = system: A2780; assay: Induction of autophagy in human A2780 cells assessed as change in MDC labeled fluorescence at upto 500 nM measured after 96 hrs by microscopic analysis; format: functional, cell-based
[6] = system: A2780; assay: Inhibition of MT-ATP8 expression in human A2780 cells at 100 nM incubated for 12 hrs by RNA sequencing analysis; format: functional, cell-based
[7] = system: MDA-MB-231; assay: Antiproliferative activity against human MDA-MB-231 cells incubated for 168 hrs by SRB method; format: functional, cell-based; conditions: MDA-MB-231, 168 h
[8] = system: A2780; assay: Antitumor activity against human A2780 cells xenografted in BALB/c nude mouse model assessed as reduction in tumor weight at 50 mg/kg, po administered daily and measured after 27 days relative to control; format: functional; set-up: scale not given: the % may be the effect or the level left; conditions: time 27 day
[9] = system: A2780; assay: Antitumor activity against human A2780 cells xenografted in BALB/c nude mouse model assessed as reduction in UQCRC2 level at 100 mg/kg, po by immunoblotting analysis; format: functional, organism-based
[10] = Toxicity in Balb/c mouse assessed as effect on spleen at 100 mg/kg by H and E staining based analysis; format: organism-based; conditions: in vivo
[11] = system: A2780; assay: Antitumor activity against human A2780 cells xenografted in BALB/c nude mouse model assessed as effect on heart 100 mg/kg, po measured after 27 days; format: functional, organism-based; conditions: time 27.0 day
[12] = system: A549; assay: Antiproliferative activity against human A549 cells incubated for 168 hrs by SRB method; format: functional, cell-based; conditions: A549, 168 h
[13] = molecular target: Cytochrome P450 3A4 (Homo sapiens, UniProt P08684); assay: Inhibition of […] (unknown origin) using midazolam as substrate in presence of NADPH by LC/MS/MS analysis; format: ADME
Sequence of Cytochrome P450 3A4 (P08684 whole entry): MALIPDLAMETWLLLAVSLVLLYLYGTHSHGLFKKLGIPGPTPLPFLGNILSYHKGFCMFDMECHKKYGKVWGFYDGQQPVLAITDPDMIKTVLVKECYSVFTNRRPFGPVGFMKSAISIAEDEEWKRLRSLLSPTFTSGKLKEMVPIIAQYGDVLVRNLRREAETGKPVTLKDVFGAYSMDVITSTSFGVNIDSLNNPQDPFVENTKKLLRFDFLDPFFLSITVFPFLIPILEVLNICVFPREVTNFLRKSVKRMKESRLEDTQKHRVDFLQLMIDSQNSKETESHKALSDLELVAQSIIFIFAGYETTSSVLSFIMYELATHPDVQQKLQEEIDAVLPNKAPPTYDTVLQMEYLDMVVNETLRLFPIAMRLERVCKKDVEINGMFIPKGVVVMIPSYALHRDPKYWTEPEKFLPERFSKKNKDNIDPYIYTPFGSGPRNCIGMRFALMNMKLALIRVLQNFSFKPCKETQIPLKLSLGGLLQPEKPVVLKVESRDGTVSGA

[14] = system: A2780; assay: Induction of intracellular ROS generation in human A2780 cells at 0 to 5 uM by DCFH-DA staining based microscopic analysis; format: functional, cell-based; conditions: dose 0-5 µM
[15] = system: A2780; assay: Inhibition of MT-ND4L expression in human A2780 cells at 100 nM incubated for 12 hrs by RNA sequencing analysis; format: functional, cell-based
[16] = AUC (0 to infinity) in ICR mouse at 10 mg/kg, po measured upto 24 hrs by LC-MS/MS analysis; format: ADME, organism-based; set-up: time < 24 hrs, dose 10 mg/kg, route po; conditions: in vivo
[17] = Acute toxicity in Balb/c mouse assessed as effect on kidney 100 mg/kg measured after 27 days by H and E staining based analysis; format: organism-based; conditions: in vivo, 648 h, time 27 day
[18] = system: A2780; assay: Induction of cell cycle arrest in human A2780 cells assessed as accumulation of cells at G1 phase at 50 nM measured after 96 hrs by PI staining based flow cytometry analysis (reference value: 80.81%); format: functional
[19] = system: HepG2; assay: Antiproliferative activity against human HepG2 cells incubated for 168 hrs by SRB method; format: functional, cell-based; conditions: HepG2, 168 h
[20] = Oral bioavailability in ICR mouse at 10 mg/kg measured upto 24 hrs by LC-MS/MS analysis; format: ADME, organism-based; conditions: in vivo
[21] = system: A2780; assay: Induction of apoptosis in human A2780 cells assessed as viable cells at 100 nM incubated for 96 hrs by Annexin-V/FITC and PI staining based flow cytometry analysis (reference value: 89.2%); format: functional; conditions: read-out: Activity
[22] = system: A2780; assay: Downregulation of COX1 level in human A2780 cells by Western blot analysis; format: functional, cell-based; conditions: dose <= 500.0 nM
[23] = system: A2780; assay: Effect on 28S mRNA level in human A2780 cells by RT-qPCR analysis; format: functional, cell-based
[24] = system: A2780; assay: Effect on ATP5A level in human A2780 cells at upto 500 nM by Western blot analysis; format: functional, cell-based
[25] = system: A2780; assay: Antitumor activity against human A2780 cells xenografted in BALB/c nude mouse model assessed as reduction in tumor weight at 100 mg/kg, po administered daily and measured after 27 days relative to control; format: functional; set-up: scale not given: the % may be the effect or the level left; conditions: time 27 day
[26] = system: A2780; assay: Inhibition of MT-CO1 expression in human A2780 cells at 100 nM incubated for 12 hrs by RNA sequencing analysis; format: functional, cell-based
[27] = Cmax in ICR mouse at 1 mg/kg, iv measured upto 24 hrs by LC-MS/MS analysis; format: ADME, organism-based; set-up: time < 24 hrs, dose 1 mg/kg, route iv; conditions: in vivo
[28] = system: A2780; assay: Inhibition of MT-ND1 expression in human A2780 cells at 100 nM incubated for 12 hrs by RNA sequencing analysis; format: functional, cell-based
[29] = system: A2780; assay: Inhibition of MT-ND5 expression in human A2780 cells at 100 nM incubated for 12 hrs by RNA sequencing analysis; format: functional, cell-based
[30] = system: A2780; assay: Effect on POLRMT mRNA level in human A2780 cells by RT-qPCR analysis; format: functional, cell-based
[31] = system: A2780; assay: Inhibition of mitochondrial transcript in human A2780 cells incubated for 12 hrs followed by compound removal and measured after 36 hrs by RT-qPCR analysis; format: functional, cell-based
[32] = system: A2780; assay: Induction of cell cycle arrest in human A2780 cells assessed as accumulation of cells at G2 phase at 100 nM measured after 96 hrs by PI staining based flow cytometry analysis (reference value: 4.49%); format: functional
[33] = Volume of distribution at steady state in ICR mouse at 1 mg/kg, iv measured upto 24 hrs by LC-MS/MS analysis; format: ADME, organism-based; conditions: in vivo, read-out: Vdss
[34] = Acute toxicity in Balb/c mouse assessed as effect on liver 100 mg/kg measured after 27 days by H and E staining based analysis; format: organism-based; conditions: in vivo, 648 h, time 27 day
[35] = system: A2780; assay: Induction of apoptosis in human A2780 cells assessed as early apoptotic cells at 100 nM incubated for 96 hrs by Annexin-V/FITC and PI staining based flow cytometry analysis (reference value: 14.14%); format: functional
[36] = system: A2780; assay: Inhibition of mitochondrial transcript in human A2780 cells assessed as decrease in ND1 expression by RT-qPCR analysis; format: functional, cell-based
[37] = Antiproliferative activity against human PBMC cells incubated for 168 hrs by SRB method; format: functional, cell-based
[38] = system: A2780; assay: Inhibition of colony formation in human A2780 cells assessed as appearance of smaller colonies at upto 500 nM incubated for 14 days by crystal violet staining based analysis; format: functional, cell-based; conditions: time 14.0 day
[39] = system: A2780; assay: Effect on 18S mRNA level in human A2780 cells by RT-qPCR analysis; format: functional, cell-based
[40] = system: A2780; assay: Induction of intracellular ROS generation in human A2780 cells at upto 500 nM measured after 96 hrs by DCFH-DA staining based immunofluorescence assay; format: functional, cell-based
[41] = Apparent permeability across basolateral side to apical side in human Caco-2 cells at 3 uM incubated for 2 hrs by LC-MS/MS analysis; format: ADME, cell-based

For `Cc1ccc(-c2cc(=O)oc3cc(O[C@H](C)C(=O)N4CC5CCC(C4)N5C)ccc23)c(C)c1`, the Activity [1] was 2.29%, the IC50 [2] was over 10 µM and the Activity [3] was “Dose-Dependent Effect”. For the same compound, the Activity [4] was 3.17%, the Activity [5] was “inactive” and the inhibition [6] was “Active”. For the same compound, the IC50 [7] was over 10 µM, the Activity [8] was 54.82% and the Activity [9] was “Active”. For the same compound, the Activity [10] was “Non-Toxic”, the Activity [11] was “inactive” and the IC50 [12] was 0.721 µM. The IC50 [13] was over 40 µM, the Activity [14] was “inactive” and the inhibition [15] was “Active”. For the same compound, the AUC(0-inf) [16] was 1900 ng·h/mL, the Activity [17] was “Non-Toxic” and the Activity [18] was 85.51%. It also gave an IC50 [19] of 0.152 µM, a bioavailability [20] of 43.2% and a viability at 0.1 µM [21] of 90.2%. For the same compound, the Activity [22] was “Dose-Dependent Effect”, the Activity [23] was “inactive” and the Activity [24] was “inactive”. The Activity [25] was 68.66%, the inhibition [26] was “Active” and the Cmax [27] was 364 ng/mL. For the same compound, the inhibition [28] was “Active”, the inhibition [29] was “Active” and the Activity [30] was “inactive”. For the same compound, the inhibition [31] was “inactive”, the Activity [32] was 3.73% and the Vd [33] was 6.4 L/kg. The Activity [34] was “Non-Toxic”, the Activity [35] was 0.28% and the inhibition [36] was “Active”. The IC50 [37] was over 50 µM, the inhibition [38] was “Active” and the Activity [39] was “inactive”. For the same compound, the Activity [40] was “inactive” and the Papp B→A at 2 h, 3 µM [41] was 8.3 ×10⁻⁶ cm/s.
